The nature of this series: activity coefficient (dimensionless); of the first substance listed, at infinite dilution; xn = mol fraction of the nth substance listed. The conditions noted are these: Liquid, x1 = 0.

Numbers after ± are expanded uncertainties.

As for `CCCCCCCCCC` [decane] + CCCC[n+]1ccc(C)cc1.F[B-](F)(F)F, the activity coefficient runs as follows: (297 K) 491 ± 94; (307 K) 430 ± 82; (316 K) 389 ± 74; (325 K) 359 ± 68; (335 K) 320 ± 61; (344 K) 283 ± 54.
For `CCCCCCCCC` [nonane] + CCCC[n+]1ccc(C)cc1.F[B-](F)(F)F, the activity coefficient amounted to 309 ± 59 (297 K); 275 ± 52 (307 K); 241 ± 46 (316 K); 229 ± 43 (325 K); 201 ± 38 (335 K); 201 ± 38 (344 K).
For the compound `CCCCCCCC` [octane] + CCCC[n+]1ccc(C)cc1.F[B-](F)(F)F, the activity coefficient reads like this: (297 K) 182 ± 34; (307 K) 170 ± 32; (316 K) 158 ± 30; (325 K) 142 ± 27; (335 K) 124 ± 23; (344 K) 119 ± 22.
